Assay results reported in patent US9249185B2, “Peptides for promoting angiogenesis and an use thereof” (INDUSTRY-ACADEMIC COOPERATION FOUNDATION, SOOKMYUNG WOMEN'S …, priority 2010, dated 2016).

Assays:
[1] = test system: human umbilical vein endothelial cells (HUVECs); test: Proliferation of HUVECs (CyQUANT kit); type: cell-based; settings: 48 hours with peptide, negative control (untreated) = 100
Procedure: In order to investigate the effect of the 7 peptides prepared in Example 1 on blood vessel formation, human umbilical vein endothelial cells (HUVECs) were treated with the peptide of the present invention and their proliferation was observed.
HUVECs were cultured in endothelial cell basal medium-2 (EBM-2, Clonetics Co., San Diego, USA) containing 2% fetal bovine serum (FBS). The cultured HUVECs were transferred to a 96-well plate, with 1000 cells per each well. After culturing for 24 hours followed by addition of the 7 peptides of the peptide of the present invention to each well, they were further cultured for 48 hours. The cells treated with VEGF instead of the peptide of the present invention and those treated with nothing were cultured under the same condition, as positive control group and negative control group, respectively. Upon completion of the culturing, the degree of cell proliferation was measured using the CyQUANT kit (Invitrogen, USA).

[2] = test system: HUVECs; test: Migration of HUVECs through polycarbonate filter chamber; type: cell-based, human; settings: 37° C. for 10 hours, negative control (untreated) = 100
Procedure: In order to investigate the effect of the 7 peptides prepared in Example 1 on blood vessel formation, migration of HUVECs was measured.
The bottom portion of a chamber of a 24-well plate (Corning Costar, USA) having a polycarbonate filter with pores therebelow was coated with 0.5 mg/mL collagen type 1 ([…]). After adding EBM-2 containing the 7 peptides of the peptide of the present invention to the bottom portion of the chamber, HUVECs were inoculated at the upper portion of the chamber, with 1×10^5 cells per well. After incubation at 37° C. for 10 hours, the cells that had passed through the polycarbonate filter were fixed with methanol, stained with hematoxylin, and counted under a microscope.

| Substance | Cell proliferation (%) [1] [%] | Cell migration (%) [2] [%] |
| --- | --- | --- |
| KNAGDS (Pep_3 Artificial Peptide for Promotion of Angiogenesis) | 115.7 | 125.8 |
| Vascular endothelial growth factor [VEGF] | 166.0 | 146.3 |
| RQAGDS (Pep_5 Artificial Peptide for Promotion of Angiogenesis) | 207.5 | 165.4 |
| KNAGHS (Pep_4 Artificial Peptide for Promotion of Angiogenesis) | 119.6 | 135.5 |
| PKAGES (Pep_2 Artificial Peptide for Promotion of Angiogenesis) | 104.4 | 159.5 |
| AGESQK (Pep_11 Artificial Peptide for Promotion of Angiogenesis) | 146.5 | 202.2 |
| RQAGHS (Pep_6 Artificial Peptide for Promotion of Angiogenesis) | 138.0 | 138.6 |
| AGES (Pep_1 Artificial Peptide for Promotion of Angiogenesis) | 109.6 | 118.0 |
